A short description of data set [1]: Measurement of concentration of compound in rat plasma. The format is in vivo. Particulars: oral 10 mg/kg; for concentration at 0.25 h: after 0.25 hours; for concentration at 1 h: after 1 hour; for concentration at 4 h: after 4 hours. On the procedure: Each of the test compounds was dissolved or suspended in methyl cellulose and the resulting solution or suspension was orally administered to rats at a dosage of 10 mg/kg and blood was collected after 0.25 hours, 1 hour and 4 hours. The concentration in plasma in each of the compounds was measured by HPLC.

Data set [2] concerns collagen production induced by TGF-β (TIG-3 cells). In words: Inhibitory effect on collagen production induced by TGF-β, [3H] proline uptake (TIG-3 cells). The format is cell-based. The conditions noted are these: Homo sapiens, TGF-β1 3 ng/ml. The method, then:
As an index of collagen production, the uptake of [^3H] proline was measured.
Using a 96-well microplate, normal human skin derived fibroblast (NHDF, 10^4/well) or human embryonic lung fibroblast (TIG-3, 10^4/well) were cultured in a 10% fetal calf serum (FCS)-containing Dulbecco's modified Eagle medium (DMEM) for one day. After removing the culture supernatant, the cells were washed once with a 0.1% bovine serum albumin (BSA)-containing DMEM medium and then cultured in the 0.1% bovine serum albumin (BSA)-containing DMEM medium for one day. After adding each of the test compounds in each concentration (1, 3, 10 μM), the cells were cultured and, after adding TGF-β1 (3 ng/ml) and [^3H] proline (18.5 kBq/well), the cells were further cultured for additional one day.
After removing the culture supernatant, the cells were washed twice with a phosphate buffer solution (PBS) and dissolved with 0.3M NaOH and 1% sodium dodecylsulfate (SDS), and then each protein fraction was precipitated with trichloroacetic acid (TCA) After the precipitate was filtered through a glass filter (GF/B) and washed, the quantity of [^3H] proline on the glass filter was measured by a liquid scintillation counter. The number of cells was measured by a cell growth measuring kit (XTT, Roche) and the uptake of [^3H] proline was corrected by the number of cells. Inhibitory ratio was calculated as compared with the case where a difference between the uptake of [^3H] proline with or without TGF-β1.

Another data set has as its system mice. Nature of the data set: Acute toxicity. The format is in vivo. The conditions noted are these: oral 1000 mg/kg, observed for a week after administration. On the procedure:
Each of the compounds in Examples 1, 9, 31, 120, and 121 was administered.

In data set [3] the test system is collagen production induced by TGF-β (NHDF cells). In words: Inhibitory effect on collagen production induced by TGF-β, [3H] proline uptake (NHDF cells). The conditions noted are these: Homo sapiens, NHDF, 10 μM, TGF-β1 3 ng/ml. The format is cell-based, human. The gist of the method:
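NHDF or TIG-3 fibroblasts, serum-starved one day in 0.1% BSA DMEM, received test compound (1, 3, 10 μM), then TGF-β1 (3 ng/ml) plus [3H] proline for one more day. TCA-precipitated protein radioactivity was counted and corrected for XTT cell number. Inhibition is relative to the TGF-β1-induced uptake difference.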

In data set [1], `Cc1ccc2c(c1)c(C(=O)N1CCN(c3ccc(C(=O)NCCO)cn3)CC1)c(-c1ccccc1)n2C` [Example 1, 6-{4-[(1,5-dimethyl-2-phenyl-1H-indol-3-yl)carbonyl]piperazin-1-yl}-N-(2-hydroxyethyl)nicotinamide] gave a concentration at 0.25 h of 2300 to 29000 ng/mL, a concentration at 1 h of 1300 to 7300 ng/mL and a concentration at 4 h of 750 to 940 ng/mL. In data set [2], this compound gave an inhibition at 3 µM of 21% and an inhibition at 10 µM of 56%. The “Acute toxicity: deaths” value in the data set with mice is “no deaths were observed”.

In turn, `Cc1ncsc1CCNC(=O)c1cnc(N2CCN(C(=O)c3c(-c4ccccc4)n(C)c4cccnc34)CC2)cn1` [Example 7, 5-{4-[(1-methyl-2-phenyl-1H-pyrrolo[3,2-b]pyridin-3-yl)carbonyl]piperazin-1-yl}-N-[2-(4-methyl-1,3-thiazol-5-yl)ethyl]pyrazine-2-carboxamide] displayed a melting point of 224.6 °C.

In data set [1], `Cc1ccc2c(c1)c(C(=O)N1CCN(c3ccc(-c4nnn(CCO)n4)cn3)CC1)c(-c1ccccc1)n2C.Cl` [Example 9, 1,5-dimethyl-2-phenyl-3-[(4-{5-[2-(2-hydroxyethyl)-2H-tetrazol-5-yl]pyridin-2-yl}piperazin-1-yl)carbonyl]-1H-indole hydrochloride] gave a concentration at 0.25 h of 1300 to 3900 ng/mL, a concentration at 1 h of 720 to 2200 ng/mL and a concentration at 4 h of 350 to 530 ng/mL. In data set [2], this compound displayed an inhibition at 3 µM of 42% and an inhibition at 10 µM of 71%. In the data set with mice, the “Acute toxicity: deaths” value was “no deaths were observed”.

Take `Cc1ccc2c(c1)c(C(=O)N1CCN(c3cnc(C(=O)NCCCn4ccnc4)cn3)CC1)c(-c1ccccc1)n2C` [Example 31, 5-{4-[(1,5-dimethyl-2-phenyl-1H-indol-3-yl)carbonyl]piperazin-1-yl}-N-[3-(1H-imidazol-1-yl)propyl]pyrazine-2-carboxamide]: in data set [1], the concentration at 0.25 h is 320 to 370 ng/mL, the concentration at 1 h lay within 320 to 640 ng/mL and the concentration at 4 h is 420 to 650 ng/mL. In data set [3], at 10 µM the inhibition was 74%. Also, in data set [2], at 3 µM the inhibition was 36% and testing at 10 µM gave an inhibition of 90%. Besides, the “Acute toxicity: deaths” value in the data set on mice is on record as “no deaths were observed”.

The term inhibition denotes the drop in the measured response relative to a control, in per cent. Read a high inhibition as strong suppression. Broadly, the melting point is the temperature, or range, at which the solid turns liquid.
